Where two headings read alike, the source gives them in different places.
What was measured:
Alternaria alternata = test: In vitro poisoned food technique against fungus (Ex. 20); format: cell-based; settings: […]
tomato seedlings = test: Response of tomato plants, greenhouse growth (Ex. 30); format: in vivo; settings: for CCI 5th Day / Plant Height 5th Day / Stem Girth 5th Day: 120 h; for CCI 10th Day / Plant Height 10th Day / Root Length % Increase over control / Stem Girth 10th Day: 240 h; for Plant Height % Increase over pre on 10th Day / Stem Girth % Increase over pre on 10th Day / CCI % Increase over pre on 10th Day / Root Length (cm) 10th Day: tomato seedlings, dose 1 ml/gm/lit
chili seedlings = test: Response of chili plants, greenhouse growth (Ex. 31); format: in vivo; settings: for CCI 5th Day / Plant Height (cm) 5th Day: 120 h; for CCI 10th Day / Plant Height (cm) 10th Day / Root Lenght % Increase over control: 240 h; for CCI % Increase over pre on 10th Day / Plant Height % Increase over pre on 10th Day / Root Lenght (cm) 10th Day / Stem Girth % Increase over pre on 10th Day: chili seedlings, dose 1 ml/gm/lit
Aphid [1] = system: Aphid
Mite [2] = system: Mite
Mealy Bug [3] = settings: Mealy Bug on cotton leaves, dose 1 ml/gm/lit., 48 Hrs.
Helicoverpa armigera [4] = system: Helicoverpa armigera
Spodoptera litura [5] = system: Spodoptera litura
Thrips [6] = settings: 48 h, 1 mL or g/L
Aphid [7] = settings: 48 h, 1 mL or g/L
Mite [8] = system: Mite; remark: listed apart in the source
Mealy Bug [9] = settings: mealy bug on cotton plants, green house, dose 1 ml/gm/lit. spray
Helicoverpa armigera [10] = system: Helicoverpa armigera; remark: listed apart in the source
Spodoptera litura [11] = system: Spodoptera litura; remark: listed apart in the source
Thrips [12] = system: Thrips
[13] = cited from earlier work; for Phytotonic Effect: Table 13, effect on plants, descriptive
Spodoptera litura [14] = test: whole plant or invertebrate; settings: 72 h
Thrips [15] = test: whole plant or invertebrate; settings: in Gossypium hirsutum, 48 h
Aphid [16] = test: whole plant or invertebrate; settings: 48 h
[17] = read-out: % Corrected Mortality at 72 Hrs.
[18] = read-out: % Mortality at 72 Hrs.
[19] = read-out: % Corrected Mortality at 48 Hrs.
[20] = read-out: % Mortality at 48 Hrs.
[21] = Table 13, descriptive, no test described

## C=C1C2CCC(C2)C1(C)C (stereo not drawn) [Camphene, camphene]
Alternaria alternata
  inhibition of growth at 1 mL or g/L: 18.8%
Tomato seedlings
  CCI Pre: 11.85
  Plant Height Pre: 5.75 cm
  Stem Girth Pre: 1.29 mm
  CCI 5th Day: 13.99
  Plant Height 5th Day: 6.82 cm
  Stem Girth 5th Day: 1.49 mm
  CCI 10th Day: 14.95
  Plant Height 10th Day: 7.34 cm
  Root Length % Increase over control: 14.19%
  Stem Girth 10th Day: 2.07 mm
  Plant Height % Increase over pre on 10th Day: 27.65%
  Stem Girth % Increase over pre on 10th Day: 60.47%
  CCI % Increase over pre on 10th Day: 26.16%
  Root Length (cm) 10th Day: 3.80 cm
Chili seedlings
  CCI Pre: 9.35
  Plant Height (cm) Pre: 3.94 cm
  CCI 5th Day: 10.40
  Plant Height (cm) 5th Day: 5.97 cm
  CCI 10th Day: 12.02
  Plant Height (cm) 10th Day: 6.21 cm
  Root Lenght % Increase over control: 27.80%
  CCI % Increase over pre on 10th Day: 28.56%
  Plant Height % Increase over pre on 10th Day: 57.61%
  Root Lenght (cm) 10th Day: 3.50 cm
  Stem Girth % Increase over pre on 10th Day: 43.80%
Aphid [1]
  Total No. of dead insect at 48 Hrs.: 5.25
Aphid [1]; Dose 1 ml/gm/lit., 48 hrs
  % Corrected Mortality at 48 Hrs.: 45.71%
  % Mortality at 48 Hrs.: 52.50%
Mite [2]; Dose 1 ml/gm/lit., 48 hrs
  % Corrected Mortality at 48 Hrs.: 35.14%
  % Mortality at 48 Hrs.: 40.00%
Mealy Bug [3]
  % Mortality at 48 Hrs.: 45.00%
Mealy Bug [3]; corrected for water control
  % Corrected Mortality at 48 Hrs.: 42.11%
Helicoverpa armigera [4]; Helicoverpa armigera on okra fruits, dose 1 ml/gm/lit., 72 Hrs.
  % Mortality at 72 Hrs.: 62.50%
Helicoverpa armigera [4]; Helicoverpa armigera on okra fruits, dose 1 ml/gm/lit., 72 Hrs., corrected for water control
  % Corrected Mortality at 72 Hrs.: 62.50%
Spodoptera litura [5]; 72 h, 1 mL or g/L
  Total No. of dead insect at 72 Hrs.: 6.75
Thrips [6]
  Total No. of dead insect at 48 Hrs.: 5.25
Aphid [7]
  Total No. of dead insect at 48 Hrs.: 50.00
Mite [8]; mite on okra plants, green house, dose 1 ml/gm/lit. spray, 48 hrs after application
  % Mortality at 48 Hrs.: 40.00%
Mite [8]; mite on okra plants, green house, dose 1 ml/gm/lit. spray, 48 hrs, corrected for water control
  % Corrected Mortality at 48 Hrs.: 36.84%
Mealy Bug [9]; 48 hrs after application
  % Mortality at 48 Hrs.: 52.50%
Mealy Bug [9]; 48 hrs, corrected for water control
  % Corrected Mortality at 48 Hrs.: 47.22%
Helicoverpa armigera [10]; Helicoverpa armigera 3rd instar on chickpea plants, dose 1 ml/gm/lit. spray, 72 hrs after application
  % Mortality at 72 Hrs.: 60.00%
Helicoverpa armigera [10]; Helicoverpa armigera 3rd instar on chickpea plants, dose 1 ml/gm/lit. spray, 72 hrs, corrected for water control
  % Corrected Mortality at 72 Hrs.: 60.00%
Spodoptera litura [11]; Spodoptera litura 3rd instar on cabbage plants, dose 1 ml/gm/lit. spray, 72 hrs after application
  % Mortality at 72 Hrs.: 65.00%
Spodoptera litura [11]; Spodoptera litura 3rd instar on cabbage plants, dose 1 ml/gm/lit. spray, 72 hrs, corrected for water control
  % Corrected Mortality at 72 Hrs.: 63.16%
Thrips [12]
  Total No. of dead insect at 48 Hrs.: 50.00
Thrips [12]; thrips on cotton plants, greenhouse, dose 1 ml/gm/lit. spray, 48 hrs after application
  % Mortality at 48 Hrs.: 50.00%
Thrips [12]; thrips on cotton plants, greenhouse, dose 1 ml/gm/lit. spray, 48 hrs, corrected for water control
  % Corrected Mortality at 48 Hrs.: 44.44%
[13]
  Phytotonic Effect: Trigger the nutrition
Spodoptera litura [14]; [17]
  mortality at 1 mL or g/L: 65.8%
Spodoptera litura [14]; [18]
  mortality at 1 mL or g/L: 67.5%
Thrips [15]; [19]
  mortality at 1 mL or g/L: 45.7%
Thrips [15]; [20]
  mortality at 1 mL or g/L: 52.5%
Aphid [16]; [19]
  mortality at 1 mL or g/L: 41.2%
Aphid [16]; [20]
  mortality at 1 mL or g/L: 50%

## Cc1ccc(C(C)C)cc1 [p-Cymene]
Alternaria alternata
  inhibition of growth at 1 mL or g/L: 34.1%
Tomato seedlings
  CCI Pre: 12.58
  Plant Height Pre: 6.12 cm
  Stem Girth Pre: 1.35 mm
  CCI 5th Day: 14.52
  Plant Height 5th Day: 7.24 cm
  Stem Girth 5th Day: 1.82 mm
  CCI 10th Day: 15.68
  Plant Height 10th Day: 7.84 cm
  Root Length % Increase over control: 21.38%
  Stem Girth 10th Day: 2.06 mm
  Plant Height % Increase over pre on 10th Day: 28.10%
  Stem Girth % Increase over pre on 10th Day: 52.59%
  CCI % Increase over pre on 10th Day: 24.64%
  Root Length (cm) 10th Day: 4.04 cm
Chili seedlings
  CCI Pre: 9.30
  Plant Height (cm) Pre: 4.29 cm
  CCI 5th Day: 11.47
  Plant Height (cm) 5th Day: 6.13 cm
  CCI 10th Day: 13.48
  Plant Height (cm) 10th Day: 6.48 cm
  Root Lenght % Increase over control: 15.10%
  CCI % Increase over pre on 10th Day: 44.95%
  Plant Height % Increase over pre on 10th Day: 51.05%
  Root Lenght (cm) 10th Day: 3.15 cm
  Stem Girth % Increase over pre on 10th Day: 40.29%
Aphid [1]
  Total No. of dead insect at 48 Hrs.: 6.00
Aphid [1]; in vivo
  % Corrected Mortality at 48 Hrs.: 54.29%
Helicoverpa armigera [4]; in vivo
  % Corrected Mortality at 72 Hrs.: 65.00%
  % Mortality at 72 Hrs.: 65.00%
Spodoptera litura [5]; Spodoptera litura on castor leaves, dose 1 ml/gm/lit., 10 insects/treatment, 72 hrs after application
  Total No. of dead insect at 72 Hrs.: 7.25
Thrips [6]
  Total No. of dead insect at 48 Hrs.: 6.00
Aphid [7]
  Total No. of dead insect at 48 Hrs.: 60.00
Helicoverpa armigera [10]; in vivo
  % Corrected Mortality at 72 Hrs.: 65.00%
  % Mortality at 72 Hrs.: 65.00%
Spodoptera litura [11]; in vivo
  % Corrected Mortality at 72 Hrs.: 68.42%
  % Mortality at 72 Hrs.: 70.00%
Thrips [12]
  Total No. of dead insect at 48 Hrs.: 57.50
Thrips [12]; in vivo
  % Corrected Mortality at 48 Hrs.: 52.78%
  % Mortality at 48 Hrs.: 57.50%
[13]; [21]
  Acaricidal Activity - Mode of action: Showed mortality against
  Bactericidal Activity - Mode of action: Strong anti-bacterial
  Insecticidal Activities - Mode of action: High mortality against
  Nematicidal Activity - Mode of action: Effective in reducing
[13]
  Phytotonic Effect: Trigger plant
Spodoptera litura [14]; [17]
  mortality at 1 mL or g/L: 71%
Spodoptera litura [14]; [18]
  mortality at 1 mL or g/L: 72.5%
Thrips [15]; [19]
  mortality at 1 mL or g/L: 54.3%
Thrips [15]; [20]
  mortality at 1 mL or g/L: 60%
Aphid [16]; [19]
  mortality at 1 mL or g/L: 52.9%
Aphid [16]; [20]
  mortality at 1 mL or g/L: 60%

## CC(C)=CCCC(C)=CC=O [Citral]
Alternaria alternata
  inhibition of growth at 1 mL or g/L: 48.3%
Tomato seedlings
  CCI Pre: 11.20
  Plant Height Pre: 6.11 cm
  Stem Girth Pre: 1.35 mm
  CCI 5th Day: 13.34
  Plant Height 5th Day: 7.15 cm
  Stem Girth 5th Day: 1.46 mm
  CCI 10th Day: 14.25
  Plant Height 10th Day: 7.85 cm
  Root Length % Increase over control: 25.08%
  Stem Girth 10th Day: 2.12 mm
  Plant Height % Increase over pre on 10th Day: 28.48%
  Stem Girth % Increase over pre on 10th Day: 56.50%
  CCI % Increase over pre on 10th Day: 27.23%
  Root Length (cm) 10th Day: 4.16 cm
Chili seedlings
  CCI Pre: 8.60
  Plant Height (cm) Pre: 4.47 cm
  CCI 5th Day: 11.02
  Plant Height (cm) 5th Day: 6.30 cm
  CCI 10th Day: 12.02
  Plant Height (cm) 10th Day: 6.79 cm
  Root Lenght % Increase over control: 14.22%
  CCI % Increase over pre on 10th Day: 39.77%
  Plant Height % Increase over pre on 10th Day: 52.01%
  Root Lenght (cm) 10th Day: 3.13 cm
  Stem Girth % Increase over pre on 10th Day: 38.62%
Aphid [1]
  Total No. of dead insect at 48 Hrs.: 6.50
Aphid [1]; in vivo
  % Corrected Mortality at 48 Hrs.: 60.00%
  % Mortality at 48 Hrs.: 65.00%
Mite [2]; in vivo
  % Mortality at 48 Hrs.: 55.00%
Spodoptera litura [5]; 72 h, 1 mL or g/L
  Total No. of dead insect at 72 Hrs.: 5.50
Thrips [6]
  Total No. of dead insect at 48 Hrs.: 5.75
Aphid [7]
  Total No. of dead insect at 48 Hrs.: 70.00
Mite [8]; in vivo
  % Mortality at 48 Hrs.: 55.00%
Spodoptera litura [11]; in vivo
  % Corrected Mortality at 72 Hrs.: 50.00%
  % Mortality at 72 Hrs.: 52.50%
Thrips [12]
  Total No. of dead insect at 48 Hrs.: 57.50
Thrips [12]; in vivo
  % Corrected Mortality at 48 Hrs.: 52.78%
[13]; [21]
  Acaricidal Activity - Mode of action: Repelling and killing
  Antifungal Activity - Mode of action: Inhibited the mycelial
  Antioxidant Activity - Mode of action: Induced the overexpression
  Bactericidal Activity - Mode of action: High mortality against
  Insecticidal Activities - Mode of action: Repellent and Antifeedant
  Nematicidal Activity - Mode of action: Strong Nematicidal activity
  Virucidal Activity - Mode of action: Increases plant disease
[13]
  Phytotonic Effect: Trigger
Spodoptera litura [14]; [17]
  mortality at 1 mL or g/L: 52.6%
Spodoptera litura [14]; [18]
  mortality at 1 mL or g/L: 55%
Thrips [15]; [19]
  mortality at 1 mL or g/L: 51.4%
Thrips [15]; [20]
  mortality at 1 mL or g/L: 57.5%
Aphid [16]; [19]
  mortality at 1 mL or g/L: 64.7%
Aphid [16]; [20]
  mortality at 1 mL or g/L: 70%
